Test results: ChEMBL document CHEMBL2413072, “Synthesis and in vitro anticancer studies of novel C-2 arylidene congeners of lantadenes” (2013)

Columns and labels:
Assay type in all cases: functional
OVCAR-3 [1] = test: Growth inhibition of human OVCAR3 cells assessed as cell growth at 10^-4 M by sulforhodamine B assay; conditions: read-out: Activity
SF-295 = test: Growth inhibition of human SF295 cells assessed as cell growth at 10^-8 M by sulforhodamine B assay; conditions: read-out: Activity
OVCAR-5 = test: Growth inhibition of human OVCAR5 cells assessed as cell growth at 10^-7 M by sulforhodamine B assay; conditions: read-out: Activity
CCRF-CEM [2] = test: Growth inhibition of human CCRF-CEM cells by sulforhodamine B assay
SNB-19 = test: Growth inhibition of human SNB19 cells by sulforhodamine B assay
HCT-15 [3] = test: Growth inhibition of human HCT15 cells assessed as cell growth at 10^-4 M by sulforhodamine B assay; conditions: read-out: Activity
HCT-15 [4] = test: Growth inhibition of human HCT15 cells by sulforhodamine B assay
HL-60(TB) = test: Growth inhibition of human HL-60(TB) cells assessed as cell growth at 10^-6 M by sulforhodamine B assay; conditions: read-out: Activity
MOLT-4 [5] = test: Growth inhibition of human MOLT4 cells assessed as cell growth at 10^-6 M by sulforhodamine B assay; conditions: read-out: Activity
CCRF-CEM [6] = test: Growth inhibition of human CCRF-CEM cells assessed as cell growth at 10^-7 M by sulforhodamine B assay; conditions: read-out: Activity
Malme-3M = test: Growth inhibition of human MALME-3M cells assessed as cell growth at 10^-7 M by sulforhodamine B assay; conditions: read-out: Activity
OVCAR-3 [7] = test: Growth inhibition of human OVCAR3 cells assessed as cell growth at 10^-8 M by sulforhodamine B assay; conditions: read-out: Activity
SK-MEL-2 = test: Growth inhibition of human SK-MEL-2 cells assessed as cell growth at 10^-7 M by sulforhodamine B assay; conditions: read-out: Activity
M14 [8] = test: Growth inhibition of human M14 cells assessed as cell growth at 10^-8 M by sulforhodamine B assay; conditions: read-out: Activity
T47D = test: Growth inhibition of human T47D cells assessed as cell growth at 10^-4 M by sulforhodamine B assay; conditions: read-out: Activity
LOX IMVI = test: Growth inhibition of human LOXIMVI cells assessed as cell growth at 10^-8 M by sulforhodamine B assay; conditions: read-out: Activity
BT-549 [9] = test: Growth inhibition of human BT549 cells assessed as cell growth at 10^-6 M by sulforhodamine B assay; conditions: read-out: Activity
MOLT-4 [10] = test: Growth inhibition of human MOLT4 cells assessed as cell growth at 10^-7 M by sulforhodamine B assay; conditions: read-out: Activity
CCRF-CEM [11] = test: Growth inhibition of human CCRF-CEM cells assessed as cell growth at 10^-6 M by sulforhodamine B assay; conditions: read-out: Activity
SF-539 = test: Growth inhibition of human SF539 cells assessed as cell growth at 10^-6 M by sulforhodamine B assay; conditions: read-out: Activity
SN12C = test: Growth inhibition of human SN12C cells assessed as cell growth at 10^-4 M by sulforhodamine B assay; conditions: read-out: Activity
NCI-H460 = test: Growth inhibition of human NCI-H460 cells assessed as cell growth at 10^-6 M by sulforhodamine B assay; conditions: read-out: Activity
[12] = Growth inhibition of human HCC2998 cells assessed as cell growth at 10^-4 M by sulforhodamine B assay; conditions: HCC 2998, read-out: Activity
RXF 393 = test: Growth inhibition of human RXF393 cells assessed as cell growth at 10^-8 M by sulforhodamine B assay; conditions: read-out: Activity
HCT-116 = test: Growth inhibition of human HCT116 cells by sulforhodamine B assay
U-251 = test: Growth inhibition of human U251 cells assessed as cell growth at 10^-7 M by sulforhodamine B assay; conditions: read-out: Activity
786-0 [13] = test: Growth inhibition of human 786-0 cells by sulforhodamine B assay
M14 [14] = test: Growth inhibition of human M14 cells by sulforhodamine B assay
COLO 205 [15] = test: Growth inhibition of human COLO205 cells assessed as cell growth at 10^-6 M by sulforhodamine B assay; conditions: read-out: Activity
IGROV-1 = test: Growth inhibition of human IGROV1 cells assessed as cell growth at 10^-6 M by sulforhodamine B assay; conditions: read-out: Activity
NCI-H522 = test: Growth inhibition of human NCI-H522 cells assessed as cell growth at 10^-4 M by sulforhodamine B assay; conditions: read-out: Activity
SK-MEL-5 = test: Growth inhibition of human SK-MEL-5 cells assessed as cell growth at 10^-8 M by sulforhodamine B assay; conditions: read-out: Activity
BT-549 [16] = test: Growth inhibition of human BT549 cells assessed as cell growth at 10^-7 M by sulforhodamine B assay; conditions: read-out: Activity
MDA-MB-231 = test: Growth inhibition of human MDA-MB-231 cells by sulforhodamine B assay
COLO 205 [17] = test: Growth inhibition of human COLO205 cells by sulforhodamine B assay
CAKI-1 = test: Growth inhibition of human CAKI-1 cells by sulforhodamine B assay
HOP-62 [18] = test: Growth inhibition of human HOP62 cells assessed as cell growth at 10^-4 M by sulforhodamine B assay; conditions: read-out: Activity
HOP-62 [19] = test: Growth inhibition of human HOP62 cells assessed as cell growth at 10^-8 M by sulforhodamine B assay; conditions: read-out: Activity
786-0 [20] = test: Growth inhibition of human 786-0 cells assessed as cell growth at 10^-8 M by sulforhodamine B assay; conditions: read-out: Activity
[21] = read-out: LC50 (the source's name)
[22] = read-out: pLC50 (the source's name) (converted)

Work on `C/C=C(/C)C(=O)O[C@@H]1CC(C)(C)C[C@H]2C3=CC[C@@H]4[C@@]5(C)CCC(=O)C(C)(C)[C@@H]5CC[C@@]4(C)[C@]3(C)CC[C@@]12C(=O)O` [LANTADENE A] yielded a growth at 100 µM (OVCAR-3 [1]) of 23%, a growth at 0.01 µM (SF-295) of 96% and a growth at 0.1 µM (OVCAR-5) of 100%. It also gave a GI50 (CCRF-CEM [2]; read-out: GI50) of 3.48 µM, a CC50 (CCRF-CEM [2]; [21]) greater than 100 µM and a TGI (CCRF-CEM [2]; read-out: TGI) greater than 100 µM. It also gave a GI50 (CCRF-CEM [2]; read-out: pGI50 (converted)) of 3.47 µM, a CC50 (CCRF-CEM [2]; [22]) greater than 100 µM and a TGI (CCRF-CEM [2]; read-out: pTGI (converted)) greater than 100 µM. The GI50 (SNB-19; read-out: GI50) was 4.67 µM, the CC50 (SNB-19; [21]) was greater than 100 µM and the TGI (SNB-19; read-out: TGI) was greater than 100 µM. It also gave a GI50 (SNB-19; read-out: pGI50 (converted)) of 4.68 µM, a CC50 (SNB-19; [22]) greater than 100 µM and a TGI (SNB-19; read-out: pTGI (converted)) greater than 100 µM. The growth at 100 µM (HCT-15 [3]) was 9%, the GI50 (HCT-15 [4]; read-out: GI50) was 3.17 µM and the LC50 (50% lethal concentration) (HCT-15 [4]; read-out: LC50) was greater than 100 µM. The TGI (HCT-15 [4]; read-out: TGI) was greater than 100 µM, the GI50 (HCT-15 [4]; read-out: pGI50 (converted)) was 3.16 µM and the LC50 (50% lethal concentration) (HCT-15 [4]; read-out: pLC50 (converted)) was greater than 100 µM. For the same molecule, the TGI (HCT-15 [4]; read-out: pTGI (converted)) was greater than 100 µM, the growth at 1 µM (HL-60(TB)) was 80% and the growth at 1 µM (MOLT-4 [5]) was 89%. It also gave a growth at 0.1 µM (CCRF-CEM [6]) of 97%, a growth at 0.1 µM (Malme-3M) of 96% and a growth at 0.01 µM (OVCAR-3 [7]) of 109%. For the same molecule, the growth at 0.1 µM (SK-MEL-2) was 115%, the growth at 0.01 µM (M14 [8]) was 96% and the growth at 100 µM (T47D) was 23%. The growth at 0.01 µM (LOX IMVI) was 96%, the growth at 1 µM (BT-549 [9]) was 90% and the growth at 0.1 µM (MOLT-4 [10]) was 102%. The growth at 1 µM (CCRF-CEM [11]) was 92%, the growth at 1 µM (SF-539) was 106% and the growth at 100 µM (SN12C) was 15%. For the same molecule, the growth at 1 µM (NCI-H460) was 92%, the growth at 100 µM [12] was 2% and the growth at 0.01 µM (RXF 393) was 95%. The GI50 (HCT-116; read-out: GI50) was 3.62 µM, the LC50 (HCT-116; read-out: LC50) was greater than 100 µM and the TGI (HCT-116; read-out: TGI) was greater than 100 µM. For the same molecule, the GI50 (HCT-116; read-out: pGI50 (converted)) was 3.63 µM, the LC50 (HCT-116; read-out: pLC50 (converted)) was greater than 100 µM and the TGI (HCT-116; read-out: pTGI (converted)) was greater than 100 µM. The growth at 0.1 µM (U-251) was 94%, the GI50 (786-0 [13]; read-out: GI50) was 3.47 µM and the CC50 (786-0 [13]; [21]) was greater than 100 µM. The TGI (786-0 [13]; read-out: TGI) was greater than 100 µM, the GI50 (786-0 [13]; read-out: pGI50 (converted)) was 3.47 µM and the CC50 (786-0 [13]; [22]) was greater than 100 µM. For the same molecule, the TGI (786-0 [13]; read-out: pTGI (converted)) was greater than 100 µM, the GI50 (M14 [14]; read-out: GI50) was 4.53 µM and the CC50 (M14 [14]; [21]) was greater than 100 µM. It also gave a TGI (M14 [14]; read-out: TGI) greater than 100 µM, a GI50 (M14 [14]; read-out: pGI50 (converted)) of 4.57 µM and a CC50 (M14 [14]; [22]) greater than 100 µM. For the same molecule, the TGI (M14 [14]; read-out: pTGI (converted)) was greater than 100 µM, the growth at 1 µM (COLO 205 [15]) was 101% and the growth at 1 µM (IGROV-1) was 108%. It also gave a growth at 100 µM (NCI-H522) of -4%, a growth at 0.01 µM (SK-MEL-5) of 90% and a growth at 0.1 µM (BT-549 [16]) of 95%. The GI50 (MDA-MB-231; read-out: GI50) was 4.53 µM, the CC50 (MDA-MB-231; [21]) was greater than 100 µM and the TGI (MDA-MB-231; read-out: TGI) was 33.4 µM. It also gave a GI50 (MDA-MB-231; read-out: pGI50 (converted)) of 4.57 µM, a CC50 (MDA-MB-231; [22]) greater than 100 µM and a TGI (MDA-MB-231; read-out: pTGI (converted)) of 33.1 µM. The GI50 (COLO 205 [17]; read-out: GI50) was 2.64 µM, the LC50 (COLO 205 [17]; read-out: LC50) was 89.7 µM and the TGI (COLO 205 [17]; read-out: TGI) was 6.8 µM. For the same molecule, the GI50 (COLO 205 [17]; read-out: pGI50 (converted)) was 2.63 µM, the LC50 (COLO 205 [17]; read-out: pLC50 (converted)) was 89.1 µM and the TGI (COLO 205 [17]; read-out: pTGI (converted)) was 6.76 µM. The GI50 (CAKI-1; read-out: GI50) was 3.93 µM, the CC50 (CAKI-1; [21]) was greater than 100 µM and the TGI (CAKI-1; read-out: TGI) was greater than 100 µM. The GI50 (CAKI-1; read-out: pGI50 (converted)) was 3.89 µM, the CC50 (CAKI-1; [22]) was greater than 100 µM and the TGI (CAKI-1; read-out: pTGI (converted)) was greater than 100 µM. The growth at 100 µM (HOP-62 [18]) was 26%, the growth at 0.01 µM (HOP-62 [19]) was 92% and the growth at 0.01 µM (786-0 [20]) was 95%.
